Measurements as given in publication PMC4167715 (Biochemistry, 2013).

Assays:
[1] = molecular target: S. aureus class II fructose 1,6-bisphosphate aldolase (SaFBA) (Staphylococcus aureus, UniProt Q5HE75); experiment: biochemical; details: read-out: % inhibition at 25 μM
[2] = molecular target: M. tuberculosis class II fructose 1,6-bisphosphate aldolase (MtFBA) (Mycobacterium tuberculosis, UniProt P9WQA3); experiment: X-ray crystal structure; type: binding
[3] = molecular target: E. coli class II fructose 1,6-bisphosphate aldolase (EcFBA) (Escherichia coli, UniProt P0AB71); experiment: coupled fluorescence FBP cleavage assay, single concentration; type: biochemical; details: read-out: % inhibition at 25 μM
Chain of E. coli class II fructose 1,6-bisphosphate aldolase (EcFBA) (P0AB71 2-359): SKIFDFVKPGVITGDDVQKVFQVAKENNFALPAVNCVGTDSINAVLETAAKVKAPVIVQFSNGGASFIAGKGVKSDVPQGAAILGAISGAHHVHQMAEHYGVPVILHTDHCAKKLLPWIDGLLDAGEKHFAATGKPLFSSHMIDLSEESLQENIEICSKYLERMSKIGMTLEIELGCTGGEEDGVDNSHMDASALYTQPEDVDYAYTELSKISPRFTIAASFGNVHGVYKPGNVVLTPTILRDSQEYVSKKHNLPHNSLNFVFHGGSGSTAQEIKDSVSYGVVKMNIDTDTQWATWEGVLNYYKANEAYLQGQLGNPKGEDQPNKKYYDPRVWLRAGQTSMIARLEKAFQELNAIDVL

Chain of M. tuberculosis class II fructose 1,6-bisphosphate aldolase (MtFBA) (P9WQA3 whole entry): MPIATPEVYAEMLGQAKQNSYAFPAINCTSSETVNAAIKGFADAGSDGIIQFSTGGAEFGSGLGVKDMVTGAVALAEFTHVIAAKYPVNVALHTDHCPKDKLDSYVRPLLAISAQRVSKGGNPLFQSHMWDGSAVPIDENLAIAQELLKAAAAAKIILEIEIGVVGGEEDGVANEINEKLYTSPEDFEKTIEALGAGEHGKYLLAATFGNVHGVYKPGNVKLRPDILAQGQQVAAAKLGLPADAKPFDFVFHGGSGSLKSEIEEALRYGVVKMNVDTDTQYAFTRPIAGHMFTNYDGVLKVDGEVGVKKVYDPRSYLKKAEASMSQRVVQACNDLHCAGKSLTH
Chain of S. aureus class II fructose 1,6-bisphosphate aldolase (SaFBA) (Q5HE75 whole entry): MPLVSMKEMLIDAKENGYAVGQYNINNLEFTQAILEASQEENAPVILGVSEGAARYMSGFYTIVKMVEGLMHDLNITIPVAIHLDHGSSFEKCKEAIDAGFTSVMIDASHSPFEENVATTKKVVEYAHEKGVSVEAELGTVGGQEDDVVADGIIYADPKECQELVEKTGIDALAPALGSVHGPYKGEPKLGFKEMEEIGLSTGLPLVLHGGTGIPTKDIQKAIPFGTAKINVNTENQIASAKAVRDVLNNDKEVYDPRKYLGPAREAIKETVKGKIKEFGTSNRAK

O=C(O)c1ccc2cccc(O)c2n1 [HCA, 8-hydroxyquinoline-2-carboxylic acid]
inhibition at 25 µM [1]: 64.3 ± 0.6%
Kd [2]: 70.8 ± 2.7 µM
inhibition at 25 µM [3]: 42.2 ± 2.8%
